The values that follow come from patent publication US9938258B2 (Karyopharm Therapeutics Inc., priority 2012, dated 2018).

Test [1] relates to MS751 cells. The test can be described thus: MTT cell proliferation assay, MS751. The test is classed as cell-based, human. Conditions: Homo sapiens, MS751, MS751 cells; eight concentrations 1 nM to 30 μM; incubation approximately 64-72 hours; read-out: MTT Assay IC50, MS751. The gist of the method: (§1)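 Absorbance at 490 nm of solubilized formazan, produced during roughly 4 h MTT incubation, gave percent inhibition relative to negative control. Compounds spanned eight concentrations between 1 nM and 30 μM on cells plated overnight at 5,000-10,000 per well.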

The subject of test [2] is Z138 cells. Put plainly: MTT cell proliferation assay, Z138. It is filed as cell-based. The conditions noted are these: Homo sapiens, Z-138, Z138 cells; eight concentrations 1 nM to 30 μM; incubation approximately 64-72 hours; read-out: MTT Assay IC50, Z138. The gist of the method:
as §1
For orientation: Formazan colour is commonly taken as a measure of viable cells.

Test [3] has as its system 3T3 cells. The test can be described thus: MTT cell proliferation assay, 3T3. The test is classed as cell-based, mouse. Conditions: Mus musculus, NIH3T3, 3T3 cells; eight concentrations 1 nM to 30 μM; incubation approximately 64-72 hours; read-out: MTT Assay IC50, 3T3. The gist of the method:
as §1

The test system of test [4] is MDA-MB-468 (triple negative breast) cancer xenograft. The test can be described thus: MDA-MB-468 mouse xenograft model. The test is classed as in vivo, CB-17 SCID mice. The conditions noted are these: 30 mg/kg QDx5 or 15 mg/kg QDx5 PO for 9 weeks; SCID mice with MDA-MB-468 tumors; versus vehicle. Here is the method: The oncological impact of Compound 116 was tested using a MDA-MB-468 (triple negative breast) cancer xenograft model in CB-17 SCID mice. MDA-MB-468 (ATCC # HTB-102) breast adenocarcinoma cells were obtained from ATCC. These cells were grown in high glucose DMEM medium supplemented with 10% fetal bovine serum, 1% penicillin and streptomycin, and 2 mM L-glutamine. Cells were sub-cultured by dilution at a ratio of 1:4. MDA-MB-468 cells were harvested by trypsinization and counted using a hemocytometer. Cells were resuspended in PBS at a concentration of 4×10^8 cells per mL. Cells were placed on ice and mixed with an equal volume of Matrigel (BD Biosciences CB-40234). This mixture was kept on ice and injected into the left flank of mice in a volume of 0.2 mL, equivalent to 4×10^7 cells per mouse. When the tumors reached a mean size of between 100 and 200 mm^3, mice were randomly and prospectively divided. Tumor bearing mice were treated with vehicle or Compound 116 on M-F (QDx5/week) for 9 weeks. Compound 116 was administered orally (PO) at initial doses of 15 and 30 mg/kg five times a week. Animals' weights and condition were recorded daily, tumors were measured once every two days with micro-calipers, and tumor volume was calculated as (length×width×width)/2.

Test [5] concerns DLD-1 cell line. Put plainly: MTT cell proliferation assay, DLD-1. Conditions: Homo sapiens, incubation approximately 64-72 hours. It is filed as cell-based. Here is the method:
(§2) The MTT cell proliferation assay was used to study the cytotoxic properties of the compounds. The assay was performed according to the method described by Roche Molecular Biochemicals, with minor modifications. The assay is based on the cleavage of the tetrazolium salt, MTT, in the presence of an electron-coupling reagent. The water-insoluble formazan salt produced must be solubilized in an additional step. Cells grown in a 96-well tissue culture plate were incubated with the MTT solution for approximately 4 hours. After this incubation period, a water-insoluble formazan dye formed. After solubilization, the formazan dye was quantitated using a scanning multi-well spectrophotometer (ELISA reader). […] The cells were seeded at 5,000-10,000 cells in each well of 96-well plate in 100 μL of fresh culture medium and were allowed to attach overnight. The stock solutions of the compounds were diluted in 100 μL cell culture medium to obtain eight concentrations of each test compound, ranging from 1 nM to 30 μM. […] All optical densities were measured at 490 nm using a Vmax Kinetic Microplate Reader (Molecular Devices). In most cases, the assay was performed in duplicate and the results were presented as a mean percent inhibition to the negative control±SE. The following formula was used to calculate the percent of inhibition: Inhibition (%)=(1-(ODo/OD)) ×100. […]

In test [6] the test system is PAK4 interactors and downstream proteins. The test can be described thus: Immunoblots of PAK4 interactors and downstream proteins in U2OS cells. It is filed as cell-based, human. The conditions noted are these: 0.5 μM or 5 μM, 72 hours. On the procedure:
Immunoblots were used to measure the effects of exemplary compounds on protein steady-state levels and phophorylation of PAK4 interactor and downstream proteins. Specifically, U2OS (osteosarcoma) cells were split and plated on day 1. After overnight attachment to the tissue culture plate, cells were treated with either DMSO (0), 37 nM, 111 nM, 333 nM, 1 μM, or 3 μM Compound 246 for 72 hours. Cells were collected, washed and lysed in RIPA buffer. After obtaining the protein concentration by BCA assay, lysates were boiled in loading buffer and run on SDS-PAGE. The gels were transferred to nitrocellulose membranes and blotted with antibodies raised against phosphor-PAK4, PAK4, phophos-beta-catenin, beta-catenin, GEF-H1, phospho-Akt, Akt, phospho-ERK1/2, ERK1/2, phospho-cofilin, cofilin, phospho-histone H3, histone H3, cyclin D1, Mcl-1, Bcl-2, p21, survivin, caspase 8, caspase 3, PARP, and beta-actin (loading control).
In another experiment, U2OS (osteosarcoma) cells were split and plated on day 1. After overnight attachment to the tissue culture plate, cells were treated with DMSO (Ct), 0.5 μM, or 5 μM of Compound 124, 369, 226, 246, or 907 for 72 hours. Cells were collected, washed and lysed in RIPA buffer. After obtaining the protein concentration by BCA assay, lysates were boiled in loading buffer and run on SDS-PAGE. The gels were transferred to nitrocellulose membranes and blotted with antibodies raised against phophos-beta-catenin, cyclin D1, PAK4, phospho-cofilin, and beta-actin (loading control).

Test [7] has as its system HCT-15 cell line. The test can be described thus: MTT cell proliferation assay, HCT-15. The conditions noted are these: Homo sapiens, incubation approximately 64-72 hours. The test is classed as cell-based. Here is the method: as §2
The subject of test [8] is MM1S cell line. The test can be described thus: MTT cell proliferation assay, MM1S. It is filed as cell-based. Conditions: Homo sapiens, MM1.S, incubation approximately 64-72 hours. Here is the method:
(§3) The MTT cell proliferation assay was used to study the cytotoxic properties of the compounds. The assay was performed according to the method described by Roche Molecular Biochemicals, with minor modifications. The assay is based on the cleavage of the tetrazolium salt, MTT, in the presence of an electron-coupling reagent. The water-insoluble formazan salt produced must be solubilized in an additional step. Cells grown in a 96-well tissue culture plate were incubated with the MTT solution for approximately 4 hours. After this incubation period, a water-insoluble formazan dye formed. After solubilization, the formazan dye was quantitated using a scanning multi-well spectrophotometer (ELISA reader). […] The cells were seeded at 5,000-10,000 cells in each well of 96-well plate in 100 μL of fresh culture medium and were allowed to attach overnight. The stock solutions of the compounds were diluted in 100 μL cell culture medium to obtain eight concentrations of each test compound, ranging from 1 nM to 30 μM. […] All optical densities were measured at 490 nm using a Vmax Kinetic Microplate Reader (Molecular Devices). In most cases, the assay was performed in duplicate and the results were presented as a mean percent inhibition to the negative control±SE. The following formula was used to calculate the percent of inhibition: Inhibition (%)=(1-(ODo/OD)) ×100.
(§4) The M24 cell line is derived from human melanoma cells. The U2OS cell line is a human osteosarcoma cell line expressing wild type p53 and Rb, but lacking p16. The MM1S cell line is a multiple myeloma cell line; the parent cell line, MM.1, was established from peripheral blood of a multiple myeloma patient who had become resistant to steroid-based therapy. The RPMI8226 cell line is derived from human B lymphocyte cells. NHDF cells are normal human dermal fibroblast cells. The MRC-5 cell line is derived from normal lung tissue of a fetus. The LN18 cell line is a human malignant glioma cell line. The DU-145 cell line is a human prostate cancer cell line. A549 cells are human adenocarcinomic human alveolar basal epithelial cells. […]

The subject of test [9] is Hep G2 cells. The test can be described thus: MTT cell proliferation assay, Hep G2. The test is classed as cell-based. Conditions: Homo sapiens, HepG2, incubation approximately 64-72 hours. Here is the method: as §3
The M24 cell line is derived from human melanoma cells. The U2OS cell line is a human osteosarcoma cell line expressing wild type p53 and Rb, but lacking p16. The MM1S cell line is a multiple myeloma cell line; the parent cell line, MM.1, was established from peripheral blood of a multiple myeloma patient who had become resistant to steroid-based therapy. The RPMI8226 cell line is derived from human B lymphocyte cells. NHDF cells are normal human dermal fibroblast cells. The MRC-5 cell line is derived from normal lung tissue of a fetus. The LN18 cell line is a human malignant glioma cell line. The DU-145 cell line is a human prostate cancer cell line. A549 cells are human adenocarcinomic human alveolar basal epithelial cells. The MOLT4 cell line is a human acute lymphoblastic leukemia cell line. The THP1 cell line is a human leukemic monocytic cell line derived from peripheral blood. The OCIAML5 cell line is a human acute myeloid leukemia cell line. The MDA-MB-231 cell line is a human breast adenocarcinoma cell line. The MDA-MB-468 cell line is a human breast carcinoma cell line. HL-60 cells are human promyelocytic leukemia cells. Hep G2 cells are human hepatocellular carcinoma cells. HEP 3B cells are human hepatocellular carcinoma cells. The DLD-1 cell line is a colorectal adenocarcinoma cell line. The HCT-15 cell line is a human colon carcinoma cell line. The Colo-205 cell line is derived from a human adenocarcinoma of the colon. […]

Test [10] relates to M24 cell line. The test can be described thus: MTT cell proliferation assay, M24. The test is classed as cell-based. The conditions noted are these: Homo sapiens, incubation approximately 64-72 hours. On the procedure: as §2
The subject of test [11] is DU-145 cell line. The test can be described thus: MTT cell proliferation assay, DU-145. Conditions: Homo sapiens, incubation approximately 64-72 hours. It is filed as cell-based. On the procedure: as §2
The subject of test [12] is HEP 3B cells. Put plainly: MTT cell proliferation assay, HEP 3B. It is filed as cell-based. The conditions noted are these: Homo sapiens, Hep3B, incubation approximately 64-72 hours. On the procedure: as §3, §4
Test [13] deals with MRC-5 cell line. The test can be described thus: MTT cell proliferation assay, MRC-5. The test is classed as cell-based. Conditions: Homo sapiens, MRC5, incubation approximately 64-72 hours. On the procedure:
as §2

Test [14] deals with NHDF cells. The test can be described thus: MTT cell proliferation assay, NHDF. The conditions noted are these: Homo sapiens, incubation approximately 64-72 hours. It is filed as cell-based. Here is the method:
as §2

Test [15] concerns LoVo cell line. Put plainly: MTT cell proliferation assay, LoVo. The test is classed as cell-based. The conditions noted are these: Homo sapiens, incubation approximately 64-72 hours. Here is the method: as §2
The test system of test [16] is RPMI8226 cell line. The test can be described thus: MTT cell proliferation assay, RPMI8226. It is filed as cell-based. The conditions noted are these: Homo sapiens, RPMI-8226, incubation approximately 64-72 hours. On the procedure:
as §2

In test [17] the test system is MDA-MB-468 cell line. The test can be described thus: MTT cell proliferation assay, MDA-MB-468. The test is classed as cell-based. Conditions: Homo sapiens, incubation approximately 64-72 hours. Here is the method:
as §2

Test [18] has as its system Colo-205 cell line. Put plainly: MTT cell proliferation assay, Colo-205. It is filed as cell-based. Conditions: Homo sapiens, incubation approximately 64-72 hours. On the procedure:
as §2

Test [19] has as its system U2OS cell line. The test can be described thus: MTT cell proliferation assay, U2OS. It is filed as cell-based. The conditions noted are these: Homo sapiens, incubation approximately 64-72 hours. Here is the method:
as §2

For test [20], the system named is MDA-MB-231 cell line. Put plainly: MTT cell proliferation assay, MDA-MB-231. It is filed as cell-based. The conditions noted are these: Homo sapiens, incubation approximately 64-72 hours. Here is the method:
as §2

SMILES strings stand for the structures.

As a reminder, the IC50 is the point on the concentration scale where inhibition reaches its midpoint. Consider `CC(=O)c1ccc(-c2cc(Cl)c3c(c2)CC(CNC(=O)/C=C/c2ccc(N)nc2)O3)s1` (stereo not drawn) [Compound 116, (E)-N-((5-(5-acetylthiophen-2-yl)-7-chloro-2,3-dihydrobenzofuran-2-yl)methyl)-3-(6-aminopyridin-3-yl)acrylamide], for which the half-inhibitory concentration (IC50) in [1] was 100 to 5000 nM; in test [2], 100 to 5000 nM; in test [3] it was 5000 to 30000 nM. The mean tumor volume result in test [4] is recorded as “reduced”.

For `CC(O)c1ccc(-c2cc(Cl)c3c(c2)CC(CNC(=O)/C=C/c2cccnc2)O3)s1` (stereo not drawn) [Compound 124], the IC50 in test [5] is 100 to 5000 nM; in [7] it was 100 to 5000 nM; in test [1] it was below 100 nM; in [8] it was below 100 nM; in test [9], 100 to 5000 nM; in [2], below 100 nM. Besides, the IC50 in test [10] was 100 to 5000 nM; in test [11] it was 100 to 5000 nM; in test [12] it was 100 to 5000 nM; in [3] it was 100 to 5000 nM; in test [13] it was below 100 nM; in [14], 100 to 5000 nM. The half-maximal inhibitory concentration (IC50) in test [15] was 100 to 5000 nM; in [16], 100 to 5000 nM; in [17], 100 to 5000 nM; in [18], 100 to 5000 nM; in test [19], below 100 nM; in test [20], 100 to 5000 nM. Besides, the PAK4 total protein result in test [6] was “decrease”. Moreover, the “phosphorylation of PAK4 signaling proteins beta-catenin and cofilin” value in test [6] is “decreases in phosphorylation”.
